Reference: publication PMC11831473 (Advanced Science, 2024)
pKd: −log10 of the molar value.

Target: T1, Tumor necrosis factor receptor-associated factor 4 (TRAF4) (Homo sapiens, UniProt Q9BUZ4)
T1 construct: GFP-TRAF4 (MST)
T1 sequence (Q9BUZ4 1-470): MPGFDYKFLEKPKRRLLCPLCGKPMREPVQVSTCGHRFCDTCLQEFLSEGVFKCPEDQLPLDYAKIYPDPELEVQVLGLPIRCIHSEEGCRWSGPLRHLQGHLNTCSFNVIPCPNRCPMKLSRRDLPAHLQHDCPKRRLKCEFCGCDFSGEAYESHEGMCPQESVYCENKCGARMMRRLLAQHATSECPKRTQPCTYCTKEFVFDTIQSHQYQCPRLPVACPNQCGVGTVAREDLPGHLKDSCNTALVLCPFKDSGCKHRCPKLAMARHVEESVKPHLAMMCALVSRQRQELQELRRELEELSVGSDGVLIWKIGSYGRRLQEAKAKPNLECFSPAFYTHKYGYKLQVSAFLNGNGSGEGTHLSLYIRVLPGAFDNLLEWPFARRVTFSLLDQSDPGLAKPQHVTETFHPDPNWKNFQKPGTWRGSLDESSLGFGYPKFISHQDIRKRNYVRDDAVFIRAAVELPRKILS
Experiment: ITC (Kd […]); also MST (Kd […]), competition of biotin-OA pull-down, CETSA
Type: binding

## COc1c(O)cc2oc(-c3ccccc3)cc(=O)c2c1O [OA, Oroxylin A]
  pKd: 5.96
